Measurements published in article PMC9945734 (BMC Medicine, 2023).

System: PC-3-KQ and PC-3-KR cells
Assay: RNA-sequencing and differential gene expression
Format: cell-based, human

## CC(=O)Oc1ccccc1C(=O)Nc1ncc([N+](=O)[O-])s1 [Nitazoxanide]
RNA-Seq, PC-3-KQ cells
  IL21R Change (KQ-Control vs KQ-NTZ): DOWN
  IL21R logFC (KQ-Control vs KQ-NTZ): -0.8899
  INHBA Change (KQ-Control vs KQ-NTZ): DOWN
  INHBA logFC (KQ-Control vs KQ-NTZ): -0.6293
  INHBB Change (KQ-Control vs KQ-NTZ): DOWN
  INHBB logFC (KQ-Control vs KQ-NTZ): -0.6733
  KIAA1755 Change (KQ-Control vs KQ-NTZ): DOWN
  KIAA1755 logFC (KQ-Control vs KQ-NTZ): -0.9388
  KLK9 Change (KQ-Control vs KQ-NTZ): DOWN
  KLK9 logFC (KQ-Control vs KQ-NTZ): -1.8809
  LGALS12 Change (KQ-Control vs KQ-NTZ): DOWN
  LGALS12 logFC (KQ-Control vs KQ-NTZ): -2.2497
  LILRB3 Change (KQ-Control vs KQ-NTZ): DOWN
  LILRB3 logFC (KQ-Control vs KQ-NTZ): -0.8729
  LOC105373989 Change (KQ-Control vs KQ-NTZ): DOWN
  LOC105373989 logFC (KQ-Control vs KQ-NTZ): -0.7405
  LOC105377805 Change (KQ-Control vs KQ-NTZ): DOWN
  LOC105377805 logFC (KQ-Control vs KQ-NTZ): -0.9959
  LOC107987158 Change (KQ-Control vs KQ-NTZ): DOWN
  LOC107987158 logFC (KQ-Control vs KQ-NTZ): -1.1348
  LONRF2 Change (KQ-Control vs KQ-NTZ): DOWN
  LONRF2 logFC (KQ-Control vs KQ-NTZ): -0.9823
  LTB Change (KQ-Control vs KQ-NTZ): DOWN
  LTB logFC (KQ-Control vs KQ-NTZ): -0.7686
  LY6K Change (KQ-Control vs KQ-NTZ): DOWN
  LY6K logFC (KQ-Control vs KQ-NTZ): -0.6327
  MAP7D3 Change (KQ-Control vs KQ-NTZ): DOWN
  MAP7D3 logFC (KQ-Control vs KQ-NTZ): -0.8315
  MCM4 Change (KQ-Control vs KQ-NTZ): DOWN
  MCM4 logFC (KQ-Control vs KQ-NTZ): -0.8431
  MEOX1 Change (KQ-Control vs KQ-NTZ): DOWN
  MEOX1 logFC (KQ-Control vs KQ-NTZ): -0.6507
  MMP9 Change (KQ-Control vs KQ-NTZ): DOWN
  MMP9 logFC (KQ-Control vs KQ-NTZ): -0.7252
  MNX1 Change (KQ-Control vs KQ-NTZ): DOWN
  MNX1 logFC (KQ-Control vs KQ-NTZ): -0.604
  MSMP Change (KQ-Control vs KQ-NTZ): DOWN
  MSMP logFC (KQ-Control vs KQ-NTZ): -1.1495
  MYBL2 Change (KQ-Control vs KQ-NTZ): DOWN
  MYBL2 logFC (KQ-Control vs KQ-NTZ): -0.7249
  MYH7B Change (KQ-Control vs KQ-NTZ): DOWN
  MYH7B logFC (KQ-Control vs KQ-NTZ): -0.9453
  NKD1 Change (KQ-Control vs KQ-NTZ): DOWN
  NKD1 logFC (KQ-Control vs KQ-NTZ): -0.7476
  NRK Change (KQ-Control vs KQ-NTZ): DOWN
  NRK logFC (KQ-Control vs KQ-NTZ): -1.1538
  NTF4 Change (KQ-Control vs KQ-NTZ): DOWN
  NTF4 logFC (KQ-Control vs KQ-NTZ): -0.9396
  PADI3 Change (KQ-Control vs KQ-NTZ): DOWN
  PADI3 logFC (KQ-Control vs KQ-NTZ): -0.9445
  PCDH18 Change (KQ-Control vs KQ-NTZ): DOWN
  PCDH18 logFC (KQ-Control vs KQ-NTZ): -1.1702
  PEG10 Change (KQ-Control vs KQ-NTZ): DOWN
  PEG10 logFC (KQ-Control vs KQ-NTZ): -0.7533
  PFKFB1 Change (KQ-Control vs KQ-NTZ): DOWN
  PFKFB1 logFC (KQ-Control vs KQ-NTZ): -0.9123
  PGAM4 Change (KQ-Control vs KQ-NTZ): DOWN
  PGAM4 logFC (KQ-Control vs KQ-NTZ): -0.6254
  PHACTR3 Change (KQ-Control vs KQ-NTZ): DOWN
  PHACTR3 logFC (KQ-Control vs KQ-NTZ): -1.8948
  PHOSPHO2 Change (KQ-Control vs KQ-NTZ): DOWN
  PHOSPHO2 logFC (KQ-Control vs KQ-NTZ): -0.6401
  PIANP Change (KQ-Control vs KQ-NTZ): DOWN
  PIANP logFC (KQ-Control vs KQ-NTZ): -1.6896
  PRKDC Change (KQ-Control vs KQ-NTZ): DOWN
  PRKDC logFC (KQ-Control vs KQ-NTZ): -0.6126
  PRR16 Change (KQ-Control vs KQ-NTZ): DOWN
  PRR16 logFC (KQ-Control vs KQ-NTZ): -0.5996
  PRR29 Change (KQ-Control vs KQ-NTZ): DOWN
  PRR29 logFC (KQ-Control vs KQ-NTZ): -0.8108
  PRRT4 Change (KQ-Control vs KQ-NTZ): DOWN
  PRRT4 logFC (KQ-Control vs KQ-NTZ): -0.6032
  RBL1 Change (KQ-Control vs KQ-NTZ): DOWN
  RBL1 logFC (KQ-Control vs KQ-NTZ): -0.6965
  RPP25 Change (KQ-Control vs KQ-NTZ): DOWN
  RPP25 logFC (KQ-Control vs KQ-NTZ): -0.6095
  SCG2 Change (KQ-Control vs KQ-NTZ): DOWN
  SCG2 logFC (KQ-Control vs KQ-NTZ): -0.6461
  SERPINA3 Change (KQ-Control vs KQ-NTZ): DOWN
  SERPINA3 logFC (KQ-Control vs KQ-NTZ): -0.7667
  SERPINA5 Change (KQ-Control vs KQ-NTZ): DOWN
  SERPINA5 logFC (KQ-Control vs KQ-NTZ): -0.8689
  SERPINB3 Change (KQ-Control vs KQ-NTZ): DOWN
  SERPINB3 logFC (KQ-Control vs KQ-NTZ): -1.6793
  SERPINB4 Change (KQ-Control vs KQ-NTZ): DOWN
  SERPIND1 Change (KQ-Control vs KQ-NTZ): DOWN
  SERPIND1 logFC (KQ-Control vs KQ-NTZ): -1.1652
  SGK1 Change (KQ-Control vs KQ-NTZ): DOWN
  SGK1 logFC (KQ-Control vs KQ-NTZ): -0.7813
  SHISA3 Change (KQ-Control vs KQ-NTZ): DOWN
  SHISA3 logFC (KQ-Control vs KQ-NTZ): -0.8421
  SLC22A4 Change (KQ-Control vs KQ-NTZ): DOWN
  SLC22A4 logFC (KQ-Control vs KQ-NTZ): -0.8073
  SLC26A9 Change (KQ-Control vs KQ-NTZ): DOWN
  SLC26A9 logFC (KQ-Control vs KQ-NTZ): -0.6605
  SLC45A2 Change (KQ-Control vs KQ-NTZ): DOWN
  SLC45A2 logFC (KQ-Control vs KQ-NTZ): -0.7358
  SLITRK5 Change (KQ-Control vs KQ-NTZ): DOWN
  SLITRK5 logFC (KQ-Control vs KQ-NTZ): -0.708
  SVEP1 Change (KQ-Control vs KQ-NTZ): DOWN
  SVEP1 logFC (KQ-Control vs KQ-NTZ): -1.4829
  TCN1 Change (KQ-Control vs KQ-NTZ): DOWN
  TCN1 logFC (KQ-Control vs KQ-NTZ): -0.7528
  TENM4 Change (KQ-Control vs KQ-NTZ): DOWN
  TENM4 logFC (KQ-Control vs KQ-NTZ): -0.7441
  TIMM8A Change (KQ-Control vs KQ-NTZ): DOWN
  TNF Change (KQ-Control vs KQ-NTZ): DOWN
  TNF logFC (KQ-Control vs KQ-NTZ): -0.6786
  TNFRSF6B Change (KQ-Control vs KQ-NTZ): DOWN
  TNFRSF6B logFC (KQ-Control vs KQ-NTZ): -0.5861
  TNFRSF11B Change (KQ-Control vs KQ-NTZ): DOWN
  TNFRSF11B logFC (KQ-Control vs KQ-NTZ): -2.1243
  TSPAN18 Change (KQ-Control vs KQ-NTZ): DOWN
  TSPAN18 logFC (KQ-Control vs KQ-NTZ): -0.7268
  TTC30A Change (KQ-Control vs KQ-NTZ): DOWN
  TTC30A logFC (KQ-Control vs KQ-NTZ): -0.7519
  TTC30B Change (KQ-Control vs KQ-NTZ): DOWN
  TTC30B logFC (KQ-Control vs KQ-NTZ): -0.6538
  XKRX Change (KQ-Control vs KQ-NTZ): DOWN
  XKRX logFC (KQ-Control vs KQ-NTZ): -0.6274
  ZFPM2 Change (KQ-Control vs KQ-NTZ): DOWN
  ZFPM2 logFC (KQ-Control vs KQ-NTZ): -1.4661
  ZNF28 Change (KQ-Control vs KQ-NTZ): DOWN
  ZNF28 logFC (KQ-Control vs KQ-NTZ): -0.6433
  ZNF302 Change (KQ-Control vs KQ-NTZ): DOWN
  ZNF302 logFC (KQ-Control vs KQ-NTZ): -1.2333
RNA-Seq, PC-3-KQ cells, KQ-Control vs KQ-NTZ, gene ABCB11
  logFC, gene ABCB11: -0.7396
RNA-Seq, PC-3-KQ cells, KQ-Control vs KQ-NTZ, gene C5orf63
  logFC, gene C5orf63: -1.615
RNA-Seq, PC-3-KQ cells, KQ-Control vs KQ-NTZ, gene C11orf65
  logFC, gene C11orf65: -0.9307
RNA-Seq, PC-3-KQ cells, KQ-Control vs KQ-NTZ, gene CELF3
  logFC, gene CELF3: -0.8233
RNA-Seq, PC-3-KQ cells, KQ-Control vs KQ-NTZ, gene LOC107985532
  logFC, gene LOC107985532: -0.9452
RNA-Seq, PC-3-KQ cells, KQ-Control vs KQ-NTZ, gene MROH8
  logFC, gene MROH8: -0.9801
RNA-Seq, PC-3-KQ cells, KQ-Control vs KQ-NTZ, gene RLN1
  logFC, gene RLN1: -1.0231
RNA-Seq, PC-3-KQ cells, KQ-Control vs KQ-NTZ, gene RP1L1
  logFC, gene RP1L1: -0.9422
RNA-Seq, PC-3-KQ cells, KQ-Control vs KQ-NTZ, gene SAXO2
  logFC, gene SAXO2: -0.8856
RNA-Seq, PC-3-KQ cells, KQ-Control vs KQ-NTZ, gene TNFAIP8L2-SCNM1
  logFC, gene TNFAIP8L2-SCNM1: -0.9389
RNA-Seq, PC-3-KQ cells, KQ-Control vs KQ-NTZ, gene ZNF154
  logFC, gene ZNF154: -0.8416
RNA-Seq, PC-3-KQ cells, KQ-Control vs KQ-NTZ, gene ZNF596
  logFC, gene ZNF596: -0.9026
RNA-Seq, PC-3-KQ cells, gene ABCB11
  Change (KQ-Control vs KQ-NTZ), gene ABCB11: DOWN
RNA-Seq, PC-3-KQ cells, gene C5orf63
  Change (KQ-Control vs KQ-NTZ), gene C5orf63: DOWN
RNA-Seq, PC-3-KQ cells, gene C11orf65
  Change (KQ-Control vs KQ-NTZ), gene C11orf65: DOWN
RNA-Seq, PC-3-KQ cells, gene CELF3
  Change (KQ-Control vs KQ-NTZ), gene CELF3: DOWN
RNA-Seq, PC-3-KQ cells, gene LOC107985532
  Change (KQ-Control vs KQ-NTZ), gene LOC107985532: DOWN
RNA-Seq, PC-3-KQ cells, gene MROH8
  Change (KQ-Control vs KQ-NTZ), gene MROH8: DOWN
RNA-Seq, PC-3-KQ cells, gene RLN1
  Change (KQ-Control vs KQ-NTZ), gene RLN1: DOWN
RNA-Seq, PC-3-KQ cells, gene RP1L1
  Change (KQ-Control vs KQ-NTZ), gene RP1L1: DOWN
RNA-Seq, PC-3-KQ cells, gene SAXO2
  Change (KQ-Control vs KQ-NTZ), gene SAXO2: DOWN
RNA-Seq, PC-3-KQ cells, gene TNFAIP8L2-SCNM1
  Change (KQ-Control vs KQ-NTZ), gene TNFAIP8L2-SCNM1: DOWN
RNA-Seq, PC-3-KQ cells, gene ZNF154
  Change (KQ-Control vs KQ-NTZ), gene ZNF154: DOWN
RNA-Seq, PC-3-KQ cells, gene ZNF596
  Change (KQ-Control vs KQ-NTZ), gene ZNF596: DOWN
Gene AADACL3
  change of NTZ treatment: down
Gene ABAT
  change of NTZ treatment: up
Gene ADIRF
  change of NTZ treatment: up
Gene ADIRF, KQ-Control vs KQ-NTZ
  logFC: 0.6207
Gene AKR1B1, KQ-Control vs KQ-NTZ
  logFC: 1.237
Gene AKR1C1
  change of NTZ treatment: up
Gene AKR1C1, KQ-Control vs KQ-NTZ
  logFC: 1.37
Gene AKR1C3
  change of NTZ treatment: up
Gene ANG
  change of NTZ treatment: up
Gene ANG, KQ-Control vs KQ-NTZ
  logFC: 1.354
